pEC50: −log10 of the molar value.
Biological target: T1, human FXR (Homo sapiens, UniProt Q96RI1)
T1 construct: expressed in transfected cells; host or cells: HEK293 cells stably carrying a 5xGal4 response element-luciferase reporter, transiently transfected with pcDNA3.1-Gal4-FXR
T1 sequence (Q96RI1 262-486 limits assumed): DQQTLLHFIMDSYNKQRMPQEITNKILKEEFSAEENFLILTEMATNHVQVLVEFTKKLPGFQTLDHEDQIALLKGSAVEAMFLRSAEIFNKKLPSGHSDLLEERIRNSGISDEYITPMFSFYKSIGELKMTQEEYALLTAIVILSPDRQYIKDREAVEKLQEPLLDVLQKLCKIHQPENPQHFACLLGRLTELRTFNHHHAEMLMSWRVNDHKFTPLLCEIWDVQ
Experiment: transient human FXR/Gal4-luciferase reporter assay
Type: cell-based
Settings: Gal4-hFXR fusion construct, luciferase reporter in HEK293 cells; overnight incubation; response as percentage of 8 μM GW-4064 control
Procedure: The exemplified compounds of the present invention were tested in the transient human FXR/Gal4-luciferase reporter assay, and assay results were reported in Table 1 and Examples 1 to 3 together with other analytical data. A Gal4-hFXR fusion construct reporter system was used as the primary assay to characterize compound activity. A construct including 5 copies of the Gal4 promoter response element upstream of a firefly luciferase reporter cDNA was stably expressed in HEK293 cells. This reporter cell line was maintained in Dulbecco's Modified Eagle's medium (DMEM; Gibco) supplemented with 1% penicillin-streptomycin (P/S) solution, 500 μg/mL Zeocin and 10% charcoal/dextran-treated fetal bovine serum (cs-FBS) at 37° C. in a humidified 5% CO2 atmosphere. Another plasmid was constructed in which the human cytomegalovirus promoter in the pcDNA3.1 vector directs the expression of the cDNA encoding a fusion protein comprised of the DNA binding domain from the Gal4 transcription factor fused to the ligand binding domain from human FXR. The day prior to transfection, the reporter cells in culture are detached from the plate with trypsin and plated into a T75 flask at a sufficient density to achieve approximately 90% confluence the next morning. The transfection reagents are prepared by separately diluting 25 μg of the pcDNA3.1-Gal4-FXR plasmid into 1.87 mL of Opti-MEM (Thermo-Fisher), and 40 μL of Lipofectamine 2000 (Thermo-Fisher) into 1.87 mL of Opti-MEM, and then adding the diluted DNA solution into the diluted Lipofectamine 2000 solution and incubating at room temperature for 15-20 minutes. The mixture is further diluted with 10 mL of a solution comprised of DMEM, 10% cs-FBS, and 1% P/S immediately prior to transferring to the cells. The maintenance culture media is aspirated from the cells and the final transfection mixture is added before the cells are incubated overnight at 37° C. in a humidified 5% CO2 atmosphere. This protocol can be scaled up, and the transiently transfected cells can be cryopreserved in an assay-ready format. For compound testing, 100 nL of the compounds (serial dilutions in DMSO) are dispensed with an Echo acoustic dispenser (Labcyte) into the wells of a Corning/Costar clear bottom 384-well white plate. The transfected cells are harvested, counted, and diluted such that 10-25,000 cells in 25 μL are plated into each well of the 384-well compound assay plate. The compound-treated cells are incubated overnight at 37° C. in a humidified 5% CO2 atmosphere. The next morning 25 μL of Steady-Glo (Promega) are added to each well of the plate, the mixture is incubated for 15 min. with shaking, and luminescence is measured on an Envision (Perkin Elmer) plate reader. Background counts from cells treated with DMSO alone are subtracted from all raw counts, and the corrected values are converted to a percentage of the control response attained with 8 μM GW-4064.

| Structure (SMILES) | pEC50 |
| --- | --- |
| CC(F)(F)c1nc(C23CCC(CN(C(=O)N[C@H]4CC[C@](C)(O)CC4)c4cccc(Br)c4)(CC2)CC3)no1 [Example 30, 1-(3-bromophenyl)-1-((4-(5-(1,1-difluoroethyl)-1,2,4-oxadiazol-3-yl)bicyclo[2.2.2]octan-1-yl)methyl)-3-((1R,4R)-4-hydroxy-4-methylcyclohexyl)urea] | 6.82 |
| CC(C)(C)OC(=O)Nc1cccc(N(CC23CCC(c4noc(C(C)(F)F)n4)(CC2)CC3)C(=O)C23CC(F)(C2)C3)c1 [Example 32, Tert-butyl (3-(N-((4-(5-(1,1-difluoroethyl)-1,2,4-oxadiazol-3-yl)bicyclo[2.2.2]octan-1-yl)methyl)-3-fluorobicyclo[1.1.1]pentane-1-carboxamido)phenyl)carbamate] | 7.21 |
| CC(F)(F)c1nc(C23CCC(CN(C(=O)C45CC(F)(C4)C5)c4cccc(Br)c4)(CC2)CC3)no1 [Example 33, N-(3-bromophenyl)-N-((4-(5-(1,1-difluoroethyl)-1,2,4-oxadiazol-3-yl)bicyclo[2.2.2]octan-1-yl)methyl)-3-fluorobicyclo[1.1.1]pentane-1-carboxamide] | 7.89 |
| O=C(N(CC12CCC(c3noc(C4(F)CC4)n3)(CC1)CC2)c1cccc(Br)c1)C12CC(F)(C1)C2 [Example 34, N-(3-bromophenyl)-3-fluoro-N-((4-(5-(1-fluorocyclopropyl)-1,2,4-oxadiazol-3-yl)bicyclo[2.2.2]octan-1-yl)methyl)bicyclo[1.1.1]pentane-1-carboxamide] | 7.70 |
| O=C(N(CC12CCC(c3noc(C(F)(F)F)n3)(CC1)CC2)c1cccc(Br)c1)C12CC(F)(C1)C2 [Example 35, N-(3-bromophenyl)-3-fluoro-N-((4-(5-(trifluoromethyl)-1,2,4-oxadiazol-3-yl)bicyclo[2.2.2]octan-1-yl)methyl)bicyclo[1.1.1]pentane-1-carboxamide] | 7.38 |
| CC(C)(C)c1noc(C23CCC(CN(c4cccc(Br)c4)C(=O)[C@H]4C[C@](O)(C(F)(F)F)C4)(CC2)CC3)n1 [Example 36, (1S,3S)—N-(3-bromophenyl)-N-((4-(3-(tert-butyl)-1,2,4-oxadiazol-5-yl)bicyclo[2.2.2]octan-1-yl)methyl)-3-hydroxy-3-(trifluoromethyl)cyclobutane-1-carboxamide] | 6.87 |
| CC(C)(C)c1noc(C23CCC(CN(C(=O)C45CC(F)(C4)C5)c4ccc(Cl)c(Br)c4)(CC2)CC3)n1 [Example 37, N-(3-bromo-4-chlorophenyl)-N-((4-(3-(tert-butyl)-1,2,4-oxadiazol-5-yl)bicyclo[2.2.2]octan-1-yl)methyl)-3-fluorobicyclo[1.1.1]pentane-1-carboxamide] | 5.97 |
| CC(C)(C)c1noc(C23CCC(CN(C(=O)C45CC(F)(C4)C5)c4cccc(C#N)c4)(CC2)CC3)n1 [Example 38, N-((4-(3-(tert-butyl)-1,2,4-oxadiazol-5-yl)bicyclo[2.2.2]octan-1-yl)methyl)-N-(3-cyanophenyl)-3-fluorobicyclo[1.1.1]pentane-1-carboxamide] | 6.85 |
| CC(C)(C)c1noc(C23CCC(CN(c4cccc(C#N)c4)C(=O)[C@H]4C[C@](O)(C(F)(F)F)C4)(CC2)CC3)n1 [Example 39, (1S,3S)-N-((4-(3-(tert-butyl)-1,2,4-oxadiazol-5-yl)bicyclo[2.2.2]octan-1-yl)methyl)-N-(3-cyanophenyl)-3-hydroxy-3-(trifluoromethyl)cyclobutane-1-carboxamide] | 6.25 |
| CC(C)(C)c1noc(C23CCC(CN(c4cccc(C#N)c4)C(=O)[C@H]4C[C@@](C)(O)C4)(CC2)CC3)n1 [Example 40, (1S,3S)-N-((4-(3-(tert-butyl)-1,2,4-oxadiazol-5-yl)bicyclo[2.2.2]octan-1-yl)methyl)-N-(3-cyanophenyl)-3-hydroxy-3-methylcyclobutane-1-carboxamide] | 5.90 |
| CC(C)(C)c1noc(C23CCC(CN(C(=O)C4CC(F)(F)C4)c4cccc(C#N)c4)(CC2)CC3)n1 [Example 41, N-((4-(3-(tert-butyl)-1,2,4-oxadiazol-5-yl)bicyclo[2.2.2]octan-1-yl)methyl)-N-(3-cyanophenyl)-3,3-difluorocyclobutane-1-carboxamide] | 6.77 |
| CC(C)(C)c1noc(C23CCC(CN(C(=O)C4CCC(F)(F)CC4)c4cccc(C#N)c4)(CC2)CC3)n1 [Example 42, N-((4-(3-(tert-butyl)-1,2,4-oxadiazol-5-yl)bicyclo[2.2.2]octan-1-yl)methyl)-N-(3-cyanophenyl)-4,4-difluorocyclohexane-1-carboxamide] | 5.90 |
| CC(C)(C)c1noc(C23CCC(CN(C(=O)C45CC(F)(C4)C5)c4cccc(P(C)(C)=O)c4)(CC2)CC3)n1 [Example 43, N-((4-(3-(tert-butyl)-1,2,4-oxadiazol-5-yl)bicyclo[2.2.2]octan-1-yl)methyl)-N-(3-(dimethylphosphoryl)phenyl)-3-fluorobicyclo[1.1.1]pentane-1-carboxamide] | 5.40 |
| CC(C)(C)c1noc(C23CCC(CN(C(=O)C4CC(F)(F)C4)c4cccc(P(C)(C)=O)c4)(CC2)CC3)n1 [Example 44, N-((4-(3-(tert-butyl)-1,2,4-oxadiazol-5-yl)bicyclo[2.2.2]octan-1-yl)methyl)-N-(3-(dimethylphosphoryl)phenyl)-3,3-difluorocyclobutane-1-carboxamide] | 5.40 |
| CC(C)(C)c1noc(C23CCC(CN(c4cccc(P(C)(C)=O)c4)C(=O)[C@H]4C[C@](O)(C(F)(F)F)C4)(CC2)CC3)n1 [Example 45, (1S,3S)-N-((4-(3-(tert-butyl)-1,2,4-oxadiazol-5-yl)bicyclo[2.2.2]octan-1-yl)methyl)-N-(3-(dimethylphosphoryl)phenyl)-3-hydroxy-3-(trifluoromethyl)cyclobutane-1-carboxamide] | 5.40 |
| CC(C)(C)c1noc(C23CCC(CN(C(=O)C4CCOCC4)c4cccc(P(C)(C)=O)c4)(CC2)CC3)n1 [Example 46, N-((4-(3-(tert-butyl)-1,2,4-oxadiazol-5-yl)bicyclo[2.2.2]octan-1-yl)methyl)-N-(3-(dimethylphosphoryl)phenyl)tetrahydro-2H-pyran-4-carboxamide] | 5.40 |
| CC(C)(C)c1noc(C23CCC(CN(C(=O)C4CCS(=O)(=O)CC4)c4cccc(P(C)(C)=O)c4)(CC2)CC3)n1 [Example 47, N-((4-(3-(tert-butyl)-1,2,4-oxadiazol-5-yl)bicyclo[2.2.2]octan-1-yl)methyl)-N-(3-(dimethylphosphoryl)phenyl)tetrahydro-2H-thiopyran-4-carboxamide 1,1-dioxide] | 5.40 |
| CC(F)(F)c1ccc(C23CCC(CN(C(=O)C45CC(F)(C4)C5)c4cccc(Br)c4)(CC2)CC3)nc1 [Example 48, N-(3-bromophenyl)-N-((4-(5-(1,1-difluoroethyl)pyridin-2-yl)bicyclo[2.2.2]octan-1-yl)methyl)-3-fluorobicyclo[1.1.1]pentane-1-carboxamide] | 6.54 |
| CC(F)(F)c1ccc(C23CCC(CN(C(=O)C45CC(F)(C4)C5)c4cccc(C#N)c4)(CC2)CC3)nc1 [Example 49, N-(3-cyanophenyl)-N-((4-(5-(1,1-difluoroethyl)pyridin-2-yl)bicyclo[2.2.2]octan-1-yl)methyl)-3-fluorobicyclo[1.1.1]pentane-1-carboxamide] | 6.49 |
| CC(F)(F)c1ccc(C23CCC(CN(c4cccc(C#N)c4)C(=O)[C@H]4C[C@@](C)(O)C4)(CC2)CC3)nc1 [Example 50, (1S,3S)-N-(3-cyanophenyl)-N-((4-(5-(1,1-difluoroethyl)pyridin-2-yl)bicyclo[2.2.2]octan-1-yl)methyl)-3-hydroxy-3-methylcyclobutane-1-carboxamide] | 5.93 |
| CC(F)(F)c1ccc(C23CCC(CN(c4cccc(C#N)c4)C(=O)[C@H]4C[C@](O)(C(F)(F)F)C4)(CC2)CC3)nc1 [Example 51, (1S,3S)-N-(3-cyanophenyl)-N-((4-(5-(1,1-difluoroethyl)pyridin-2-yl)bicyclo[2.2.2]octan-1-yl)methyl)-3-hydroxy-3-(trifluoromethyl)cyclobutane-1-carboxamide] | 5.88 |

Source: US12319676B2, “Substituted amide compounds useful as farnesoid X receptor modulators” (BRISTOL-MYERS SQUIBB COMPANY, priority 2019, dated 2025)
